Test results reported in patent publication US20110136665A1.

Legend:
[1] = test system: Alternaria solani; assay: Persistency against early blight on tomatoes caused by Alternaria solani, 5 day protective treatment; conditions: tomato
Description: (§1) The mixture was then made up with water to 100 ml.
To test for persistency, the leaves were infected with an aqueous spore suspension of Alternaria solani in a 2% strength biomalt solution having a density of 0.17×10^6 spores/ml only after 5 days. The plants were then placed in a water-vapor-saturated chamber at temperatures between 20 and 22° C.
Evaluation was carried out analogously to Example 1.

[2] = test system: Leptosphaeria nodorum; assay: Activity against Septoria nodorum blotch of wheat caused by Leptosphaeria nodorum
Description: as §1
The next day, the pots were inoculated with an aqueous spore suspension of Leptosphaeria nodorum (syn. Stagonospora nodorum, Septoria nodorum). The plants were then placed in a chamber at 20° C. and maximum atmospheric humidity.

SMILES: Fc1ccc([C@]2(Cn3cncn3)O[C@H]2c2ccccc2Cl)cc1 (racemic) [epoxiconazole, (2RS,3SR)-1-[3-(2-chlorophenyl)-2,3-epoxy-2-(4-fluorophenyl)propyl]-1H-1,2,4-triazole]
- Efficacy in % of the untrated control ([1]; 0.8 ppm in spray liquor): 0%
- Efficacy in % of the untrated control ([1]; 1.6 ppm in spray liquor): 0%
- Efficacy in % of the untrated control ([1]; 3.1 ppm in spray liquor): 0%
- Efficacy in % of the untrated control ([1]; 6.25 ppm in spray liquor): 0%
- Efficacy in % of the untrated control ([1]; 25 ppm in spray liquor): 0%
- Efficacy in % of the untrated control ([2]; 0.4 ppm in spray liquor): 0%
- Efficacy in % of the untrated control ([2]; 0.8 ppm in spray liquor): 0%
- Efficacy in % of the untrated control ([2]; 1.6 ppm in spray liquor): 33%

SMILES: O=C(Nc1ccccc1-c1ccc(Cl)cc1)c1cccnc1Cl [boscalid, 2-chloro-N-(4′-chlorobiphenyl-2-yl)nicotinamide]
- Efficacy in % of the untrated control ([1]; 6.25 ppm in spray liquor): 0%
- Efficacy in % of the untrated control ([2]; 1.6 ppm in spray liquor): 0%
- Efficacy in % of the untrated control ([2]; 3.1 ppm in spray liquor): 11%
- Efficacy in % of the untrated control ([2]; 12.5 ppm in spray liquor): 33%

SMILES: CC1(C)CCC(Cc2ccc(Cl)cc2)C1(O)Cn1cncn1 (stereo not drawn) [metconazole, 5-(4-chlorobenzyl)-2,2-dimethyl-1-[1,2,4]triazol-1-ylmethylcyclopentanol]
- Efficacy in % of the untrated control ([2]; 0.4 ppm in spray liquor): 0%
- Efficacy in % of the untrated control ([2]; 0.8 ppm in spray liquor): 0%
- Efficacy in % of the untrated control ([2]; 1.6 ppm in spray liquor): 56%
